Source: patent publication US20140193827A1 (TEVA PHARMACEUTICAL INDUSTRIES, LTD., priority 2013, published 2014)

Test system: GA-primed murine splenocytes
Experiment: ANOVA-based pattern identification method
Assay type: cell-based, mouse
Excerpt: We sought to identify probes matching specific patterns of expression across experimental conditions using a technique that referred to as the ANOVA-based Pattern Identification Method.
To carry out the analysis in a general manner, we computed the 6 p-values required to do pairwise comparisons of all 4 conditions for all probes using the ANOVA1 function in MATLAB. We then identified sets of probes matching the desired pattern. In the example above, probes were identified as being only affected by PG if their 6 pairwise comparison pvalues matched the following pattern (pGA-PG<0.05, pPG-reference standard<0.05, pPG-Medium<0.05, pGAMedium>0.05, pGA-reference standard>0.05, preference standard-Medium>0.05).

[1] = DOWN IN generic ONLY, group mean

Substance: glatiramer acetate [GA]
- PARP11 expression [1]: 5.609
- PAX6 expression [1]: 5.641
- PCSK2 expression [1]: 5.653
- PDK2 expression [1]: 5.937
- PHIP expression [1]: 8.192
- PMS1 expression [1]: 5.806
- PRICKLE2 expression [1]: 5.859
- PTP4A2 expression [1]: 8.952
- PTPN22 expression [1]: 5.804
- R3HDM1 expression [1]: 6.229
- RAB4A expression [1]: 6.851
- RAB6B expression [1]: 5.767
- RAB27A expression [1]: 9.622
- RBM18 expression [1]: 7.292
- RDH1 expression [1]: 5.682
- RGS19 expression [1]: 6.584
- RHBDF2 expression [1]: 6.336
- RNF17 expression [1]: 5.538
- RNF150 expression [1]: 5.93
- RPL32 expression [1]: 13.81
- RTN3 expression [1]: 5.897
- RgenericRIP1 expression [1]: 5.935
- SCNN1B expression [1]: 5.616
- SEC1 expression [1]: 5.75
- SEMA3E expression [1]: 5.601
- SH3BP2 expression [1]: 10.95
- SOX2 expression [1]: 5.674
- SPCS2 expression [1]: 5.97
- SPDYB expression [1]: 5.641
- SPN expression [1]: 5.889
- SPRR2K expression [1]: 5.662
- STAT4 expression [1]: 5.836
- SVNGR4 expression [1]: 5.647
- SYT10 expression [1]: 5.717
- TATDN3 expression [1]: 5.694
- TCFAP2C expression [1]: 5.821
- TDH expression [1]: 5.601
- TMEFF2 expression [1]: 5.65
- TMEM146 expression [1]: 6.132
- TMPO expression [1]: 8.533
- TRPM1 expression [1]: 5.694
- TRPV3 expression [1]: 5.597
- TSC1 expression [1]: 5.984
- TSSC1 expression [1]: 7.729
- TYKI expression [1]: 7.673
- UGDH expression [1]: 5.86
- UGT2A1 expression [1]: 5.61
- UTX expression [1]: 9.817
- V1RD9 expression [1]: 5.697
- ZAP70 expression [1]: 7.106
- ZBTB44 expression [1]: 5.642
- ZCCHC11 expression [1]: 5.935
- ZFP120 expression [1]: 5.536
- ZFP212 expression [1]: 6.401
- ZSCAN2 expression [1]: 5.813
- control_ILMN_1378612 expression [1]: 5.7
- control_ILMN_1378679 expression [1]: 5.604
- control_ILMN_1378774 expression [1]: 5.707
- control_ILMN_1378775 expression [1]: 5.662
- control_ILMN_1379152 expression [1]: 5.629
- control_ILMN_1379205 expression [1]: 5.72
- genericC expression [1]: 5.676
- USP47 expression (DOWN IN generic ONLY, group mean, first USP47 line): 6.068
- USP47 expression (DOWN IN generic ONLY, group mean, second USP47 line): 6.377
- 1700025G04RIK expression level (UP IN GA AND REF ONLY): 7.268
- 1700027N10RIK expression level (UP IN GA AND REF ONLY): 6.448
- 1810013L24RIK expression level (UP IN GA AND REF ONLY): 7.658
- 2310016C16RIK expression level (UP IN GA AND REF ONLY): 5.823
- 2500002A22RIK expression level (UP IN GA AND REF ONLY): 6.674
- 2610017G09RIK expression level (UP IN GA AND REF ONLY): 5.839
- 2810008M24RIK expression level (UP IN GA AND REF ONLY): 9.714
- 2810410P22RIK expression level (UP IN GA AND REF ONLY): 7.979
- 3202002H23RIK expression level (UP IN GA AND REF ONLY): 6.527
- 4930404F20RIK expression level (UP IN GA AND REF ONLY): 6.759
- 4930422G04RIK expression level (UP IN GA AND REF ONLY): 5.79
- 4930539E08RIK expression level (UP IN GA AND REF ONLY): 6.255
- 4932413O14RIK expression level (UP IN GA AND REF ONLY): 5.732
- 5830457O10RIK expression level (UP IN GA AND REF ONLY): 6.825
- 8030402P03RIK expression level (UP IN GA AND REF ONLY): 7.776
- 9430077D24RIK expression level (UP IN GA AND REF ONLY): 7.091
- A630098G22RIK expression level (UP IN GA AND REF ONLY): 7.124
- A830083H19RIK expression level (UP IN GA AND REF ONLY): 7.635
- A930014D08RIK expression level (UP IN GA AND REF ONLY): 5.703
- ACTN4 expression level (UP IN GA AND REF ONLY): 6.609
- ALS2CL expression level (UP IN GA AND REF ONLY): 7.393
- AP1B1 expression level (UP IN GA AND REF ONLY): 10.95
- ARHGAP25 expression level (UP IN GA AND REF ONLY): 10.16
- ARL1 expression level (UP IN GA AND REF ONLY): 9.913
- ARL5A expression level (UP IN GA AND REF ONLY): 8.028
- BAT2D expression level (UP IN GA AND REF ONLY): 5.932
- BAZ1B expression level (UP IN GA AND REF ONLY): 5.676
- BCL11B expression level (UP IN GA AND REF ONLY): 7.609
- C130079K02RIK expression level (UP IN GA AND REF ONLY): 7.532
- C920025C15RIK expression level (UP IN GA AND REF ONLY): 6.929
- CBFB expression level (UP IN GA AND REF ONLY): 6.648
- CCR4 expression level (UP IN GA AND REF ONLY): 5.821
- CD226 expression level (UP IN GA AND REF ONLY): 6.995
- CHIC2 expression level (UP IN GA AND REF ONLY): 8.484
- CLCN3 expression level (UP IN GA AND REF ONLY): 8.431
- COX7A1 expression level (UP IN GA AND REF ONLY): 7.161
- CSF1 expression level (UP IN GA AND REF ONLY): 5.383
- CXCR6 expression level (UP IN GA AND REF ONLY): 6.834
- CYB5 expression level (UP IN GA AND REF ONLY): 11.21
- D4ERTD22E expression level (UP IN GA AND REF ONLY): 11.37
- D6WSU163E expression level (UP IN GA AND REF ONLY): 6.582
- D230021E06RIK expression level (UP IN GA AND REF ONLY): 7.605
- D630011N09RIK expression level (UP IN GA AND REF ONLY): 5.625
- D630022O22RIK expression level (UP IN GA AND REF ONLY): 6.33
- DCK expression level (UP IN GA AND REF ONLY): 6.716
- DCUN1D5 expression level (UP IN GA AND REF ONLY): 9.535
- DHX32 expression level (UP IN GA AND REF ONLY): 8.979
- DMBT1 expression level (UP IN GA AND REF ONLY): 5.787
- DTYMK expression level (UP IN GA AND REF ONLY): 10.17
- EG386506 expression level (UP IN GA AND REF ONLY): 5.743
- EG666756 expression level (UP IN GA AND REF ONLY): 10.78
- EIF3B expression level (UP IN GA AND REF ONLY): 6.383
- EIF4E3 expression level (UP IN GA AND REF ONLY): 8.882
- ELAC2 expression level (UP IN GA AND REF ONLY): 6.351
- ELF1 expression level (UP IN GA AND REF ONLY): 10.44
- EP5TI1 expression level (UP IN GA AND REF ONLY): 8.281
- ETS1 expression level (UP IN GA AND REF ONLY): 7.811
- F830048D03RIK expression level (UP IN GA AND REF ONLY): 6.799
- FANCA expression level (UP IN GA AND REF ONLY): 5.606
- FBXO33 expression level (UP IN GA AND REF ONLY): 8.898
- FEM1C expression level (UP IN GA AND REF ONLY): 8.076
- FERD3L expression level (UP IN GA AND REF ONLY): 5.887
